Series [1] in a line: Blood alcohol content (BAC) of participants after alcoholic drinks. Format: in vivo, human. The following applies: half dose 30 minutes prior to drinking. How it is done:
Participants were also administered a verbal processing test.
The differential in blood alcohol content between the participants receiving DHM and nicotinamide mononucleotide and emoxypine succinate and the participants in control group were substantial as show in Table 1.

The conditions of series [2]: cited from earlier work.
The test system of series [3] is alcohol dehydrogenase (ADH) and acetaldehyde dehydrogenase (ALDH). Conditions: cited from earlier work.

On to `O=C1c2c(O)cc(O)cc2O[C@H](c2cc(O)c(O)c(O)c2)[C@H]1O` [DHM, (2R,3R)-3,5,7-trihydroxy-2-(3,4,5-trihydroxyphenyl)-2,3-dihydrochromen-4-one], for which the “MEAN BAC LEVELS” value in series [1] (elapsed time 00 h 15 m, cumulative drinks 1) was 0.022%; in series [1] (elapsed time 00 h 45 m, cumulative drinks 2), 0.051%; in series [1] (elapsed time 01 h 15 m, cumulative drinks 3), 0.062%; in series [1] (elapsed time 01 h 45 m, cumulative drinks 4), 0.087%; in series [1] (elapsed time 02 h 15 m, cumulative drinks 5), 0.109%; in series [1] (elapsed time 02 h 45 m, cumulative drinks 6) it was 0.131%. The “time required to reach peak plasma concentration” value in series [2] (after oral administration at a dose of 20 mg/kg) was 2.67 h. Besides, the “bioavailability after oral administration” value in series [2] (rats, oral) was 4.02%. Moreover, in series [3] (by increasing the activities of ADH and ALDH), the “alcohol (EtOH) elimination” value is reported as “promotes alcohol (EtOH) elimination”. Also, the alcohol-induced liver injuries result in series [3] (in vivo) was “ameliorates alcohol-induced liver injuries”.
